Consider 6 compounds from ChEMBL document CHEMBL1156694, “In silico screening of HIV-1 non-nucleoside reverse transcriptase and protease inhibitors” (Eur J Med Chem, 2008).

Assay [1] is described as follows: Inhibition of HIV reverse transcriptase. More on the design: species or system Human immunodeficiency virus.
The target of another assay is Protease (Human immunodeficiency virus 1, UniProt Q9YQ12). Put plainly: Inhibition of HIV1 protease.
The nature of assay [2]: Inhibition of HIV protease. More on the design: species or system Human immunodeficiency virus.

Protease, sequence (Q9YQ12 whole entry): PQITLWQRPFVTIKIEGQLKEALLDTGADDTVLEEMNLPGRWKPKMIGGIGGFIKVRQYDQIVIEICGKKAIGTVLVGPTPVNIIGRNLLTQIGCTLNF

Regarding `Cc1cc(C)c(-n2nnnc2SCC(=O)Nc2ccccc2Cl)c(C)c1`, 5 nM corresponded to half-maximal inhibition in assay [1] (IC50).
With `CCOC(=O)Cc1nnc(NC(=O)[C@@H](CC)Sc2nnnn2-c2ccccc2)s1`, the IC50 (usually the concentration that gives 50% inhibition) in assay [1] was found to be 50 nM.
The same measure, in the same setting: the same measure for `C=CCn1c(CSc2nc3ccccc3s2)nnc1SCC(=O)NCc1cccnc1`: below 100000 nM.
Compound `Cc1c(O)cccc1C(=O)N[C@@H](Cc1ccccc1)[C@H](O)CN(CC(C)C)S(=O)(=O)c1ccc2ncsc2c1` returned an IC50 at Protease below 10 nM.
In assay [2], `CC(C)(C)OC(=O)N[C@@H](Cc1ccccc1)[C@@H](O)[C@@]1(Cc2ccccc2)NC=C([C@H]2c3ccccc3C[C@@H]2O)C1=O` displayed an IC50 of 12 nM.
For `CC(C)n1nc(COC(N)=O)c(Cc2ccncc2)c1Sc1cc(Cl)cc(Br)c1`, in assay [1], the IC50 was determined as 32 nM.
